Article PMC12293736, “Discovery of N-(6-Methoxypyridin-3-yl)quinoline-2-amine Derivatives for Imaging Aggregated α-Synuclein in Parkinson’s Disease with Positron Emission Tomography” (Cells, 2025)
“And” between values parts separate entries of the source, which are not always exact repeats. Identical values can stand only once. “Also recorded” adds a separate entry of the source. Like-named read-outs stand apart in the source and are kept apart here.

Key:
[1] = biological target: T1, LBD-amplified fibrils (α-synuclein) (Homo sapiens, UniProt P37840); test: homologous competitive binding assay of radiotracers, LBD-amplified fibrils
T1 construct: made in house
Method: (§1) The binding affinity determination (Kd) was performed using homologous competitive binding assays of radiotracers with recombinant α-synuclein fibrils, LBD-amplified fibrils, PD tissues, and AD brain tissue homogenates. The brain tissue from PD and AD cases was obtained from the Banner Sun Health Research Institute Brain and Body Donation Program of Sun City, Arizona.
(§2) These direct binding assays used a fixed concentration of either recombinant α-synuclein fibrils, LBD-amplified fibrils, PD, AD tissue, or a radioligand ([^11C]7f, [^18F]7j, [^11C]8i and [^125I]8i, [^3H]8i) and varying concentration ranges of the corresponding homologous non-radiolabeled standard reference compound. In brief, various concentrations of corresponding cold compounds were diluted in 30 mM of Tris-HCl at pH 7.4, with 0.1% BSA. The direct binding assay was carried out by mixing (1) recombinant α-synuclein fibrils, LBD-amplified fibrils, PD, or AD tissue; (2) a radioligand ([^11C]7f or [^18F]7j); and (3) various concentrations of corresponding cold compounds, with incubation at 37 °C for 1 h for [^18F]7j and 30 min for [^11C]7f. After incubation, the bound and free radioligands were separated via vacuum filtration through 1.0 µm glass fiber filters in 96-well filter plates (MilliporeSigma, Burlington, MA, USA), followed by three 200 µL washes with ice-cold assay buffer. The filters containing the bound ligand were mixed with 150 µL of Optiphase Supermix scintillation cocktail (PerkinElmer) and counted immediately. All data points were obtained in triplicate. The dissociation constant (Kd) and the maximal number of binding site (Bmax) values were determined by fitting the data to the following equation: bound = (Bmax × [radioligand])/([radioligand] + [unlabeled compound] + Kd) + bottom. This was achieving via non-linear regression using GraphPad Prism software (version 4.0), where (bottom) is the non-specific binding and the [radioligand], [unlabeled compound], and Kd are expressed in nM. The synthesis of the tested compounds is described in the Supporting Information. […]
(§3) c) Direct radioactive competitive binding assay of radiotracers [11C]7f, [ 18 F]7j, [ 11C]8i and [ 125 I]8i and [ 3H]8i Affinity determination (Kd) using direct radioactive competitive binding assay with recombinant α-synuclein fibrils, Banner PD tissues, AD brain tissue homogenates. Brain tissue from PD and AD cases was obtained from the Banner Sun Health Research Institute Brain and Body Donation Program of Sun City, Arizona. […]
(§4) These direct binding assays used a fixed concentration of either α-synuclein fibrils or AD tissue and the radioligand ([11C]7f, [ 18F]7j, [ 11C]8i and [ 125 I]8i, [ 3H]8i ) and varying concentration ranges of corresponding homologous non-radiolabeled standard reference compound. In brief, the standard homologous reference compound was diluted in 30 mM Tris-HCl pH 7.4, 0.1% BSA. Reactions were incubated at 37 °C for 1 h before quantifying bound radioligand.
(§5) Bound and free radioligands were separated by vacuum filtration through 1.0 µm glass fiber filters in 96-well filter plates (Millipore), followed by three 200 µL washes with ice-cold assay buffer. Filtrates containing the bound ligand were mixed with 150 µL of Optiphase Supermix scintillation cocktail (PerkinElmer) and counted immediately. All data points were performed in triplicate. The dissociation constant (Kd) and the maximal number of binding sites (Bmax) values were determined by fitting the data to the equation. […]

PD brain tissues = biological target: T2, PD brain tissues (Homo sapiens, UniProt P37840); test: homologous competitive binding assay of radiotracers, PD tissue; conditions: for binding to PD tissues versus AD and control brain tissues: in words
T2 construct: The brain tissue from PD and AD cases was obtained from the Banner Sun Health Research Institute Brain and Body Donation Program; tissue Banner Sun Health Research Institute Brain and Body Donation Program; host or cells: human PD post mortem brain tissue
Method: as §1, §2, §3, §4
as §5, with “equation. Bound = (Bmax*[Radioligand])/([Radioligand] + [Unlabeled compound] + Kd) + Bottom by nonlinear regression using GraphPad Prism software (version 4.0), where (Bottom) is nonspecific binding and [Radioligand], [Unlabeled compound], and Kd is expressed in nM” for “equation.”
Production of [ 11C]CH3I followed the reported method. Briefly, [ 11C]CH3I was produced on-site from [ 11C]CO2 using a GE PETtrace MeI Microlab. Up to 1.4 Ci of [ 11C]carbon dioxide was produced from the JSW BC-16/8 cyclotron […]

[2] = biological target: AD brain tissue homogenates; test: homologous competitive binding assay of radiotracers, AD tissue; design: species or system human; conditions: average, NB = no binding
Method: as §1
These direct binding assays used a fixed concentration of either recombinant α-synuclein fibrils, LBD-amplified fibrils, PD, AD tissue, or a radioligand ([^11C]7f, [^18F]7j, [^11C]8i and [^125I]8i, [^3H]8i) and varying concentration ranges of the corresponding homologous non-radiolabeled standard reference compound. […] The filters containing the bound ligand were mixed with 150 µL of Optiphase Supermix scintillation cocktail (PerkinElmer) and counted immediately. […] The dissociation constant (Kd) and the maximal number of binding site (Bmax) values were determined by fitting the data to the following equation: bound = (Bmax × [radioligand])/([radioligand] + [unlabeled compound] + Kd) + bottom. […]
Bound and free radioligands were separated by vacuum filtration through 1.0 µm glass fiber filters in 96-well filter plates (Millipore), followed by three 200 µL washes with ice-cold assay buffer. […] The dissociation constant (Kd) and the maximal number of binding sites (Bmax) values were determined by fitting the data to the equation. […]

[3] = PET brain imaging studies in non-human primates; format: in vivo, cynomolgus macaques; conditions: for blood–brain barrier penetration / brain washout kinetics: in words
Method: All animal experiments were conducted under a research protocol approved by the Washington University Institutional Animal Care and Use Committee (IACUC). The NHP study was conducted in the NHP microPET facility at the Washington University School of Medicine in St. Louis. Three adults male cynomolgus macaques (9.73 ± 0.71 kg) were used in this study. Each animal was fasted for 12 h prior to the PET scans. Anesthesia was induced with an intramuscular injection of ketamine (10–20 mg kg^−1) and glycopyrrolate (0.013–0.017 mg kg^−1) to reduce salivary gland and respiration secretions. The animal was intubated, and anesthesia was maintained at 40–50% N2O and 1.4–2.0% isoflurane/oxygen throughout the procedure. A percutaneous venous catheter was used for the radiotracer injection. During the PET scanning session, the head was positioned supine with the brain in the center of the field of view. The PET scans were performed with a microPET Focus 220 scanner (Concorde/CTI/Siemens Microsystems, Knoxville, TN, USA). A 10 min transmission scan was performed to check the positioning; once confirmed, a 45 min transmission scan was obtained for attenuation correction. Subsequently, a 2 h dynamic emission scan was acquired after the administration of 365.44 ± 26.69 MBq of [^11C]7f, [^11C]8i, or [^18F]7j via the venous catheter. The PET data were collected from 0 to 120 min with the following timeframes: 3 × 1 min, 4 × 2 min, 3 × 3 min, and […]. The PET images were reconstructed using a filtered back projection method into a volume size of 128 × 128 × 95 and a voxel size of 1.85 × 1.85 × 0.796 mm^3, with all corrections (scatter, decay, random, normalization, etc.) applied. The dynamic PET images were motion-corrected and then co-registered to previous acquired structural MPRAGE MR images. The INIA19 primate brain and atlas (https://www.nitrc.org/projects/inia19/, accessed on 2 August 2023) were then co-registered to the MR images, so as to obtain the regional time−activity curves (TACs) in the regions of interests (ROIs). The radioactivity uptake was normalized using the body weight and the injected dose to obtain the standardized uptake values (SUVs). A voxel-wise reference Logan plot was performed using the cerebellum as the reference region to obtain the distribution volume ratio (DVR), with a linear time range of 30 min to 120 min:(1) ∫0t Ctτdτ/Ctt=DVR∫0t Crτdτ/Ctt+β
Here, Cr(t) is the regional time activity curve (TAC) of the reference tissue, Ct(t) is the pixelwise time activity curves of the target tissue tracer concentration measured via PET, and DVR is the distribution volume ratio of the target to the reference tissue.
The image processing was performed using MIAKAT in MATLAB (R2023a, The MathWorks, Inc., Natick, MA, USA).

[4] = biological target: T3, recombinant α-synuclein fibrils (Homo sapiens, UniProt P37840); test: photo-crosslinking of α-synuclein fibrils, digestion and LC-MS/MS; conditions: UV irradiation, GluC or trypsin digest
Description: To gain additional insight into the binding site of these molecules, a photoaffinity variant (TZ-CLX) was synthesized containing a diazirine as a photo-crosslinking motif. Closely resembling the 6-substituted lead compounds 7j and 8i, this compound covalently inserts into C-H bonds on nearby residues in the α-synuclein fibril binding site upon irradiation with ultraviolet (UV) light. Using established procedures, the crosslinked fibrils can then be disaggregated, digested using either GluC or trypsin, and analyzed via LC-MS/MS to ascertain residue-level binding information. […] Minor crosslinks were also identified in the N-terminal binding site, primarily via trypsin digestion and corresponding to the peptide EGVVAAAEK (residues 13–21, proximal to site 2, Figure 3). […]
Bottom-up LC-MS/MS Analysis. Peptide mixtures resulting from labeling and digestion were resolubilized in 25 µl of water with 0.1%TFA and analyzed by a Q-Exactive HF mass spectromet er (Thermo Fisher Scientific; Waltham, MA) coupled to a Dionex Ultimate 3000 UHPLC system (Thermo Fisher Scientific; Waltham, MA) equipped with an in- house made 15 ௗcm long fused silica capillary column (75 μm ID), packed with reversed phase Repro-Sil Pure C18-AQ 2.4 μm resin (Dr. Maisch GmbH, Ammerbuch, Germany). […]

[5] = biological target: T3, recombinant α-synuclein fibrils; test: radioactive competitive binding assay with [^3H]BF2846 (Tables 1 and 2: or [^18F]7j with LBD-amplified fibrils); conditions: running text b71; fibril type and assay not stated
[6] = Figure 5, single representative curve, read-out: Kd, LBD amplified fibrils, representative assay
[7] = homologous competitive binding, average values for 7f (n = 3) and 7j (n = 15), read-out: Kd, LBD-amplified fibrils
[8] = homologous competitive binding, average (n = 4 for 7j), NB = no binding, read-out: Kd, PD tissue

Kd [1, 6] [nM] | Kd [1, 7] | Kd (PD brain tissues; [8]) [nM] | blood–brain barrier penetration [3] | brain washout kinetics [3] | time of peak brain uptake post-injection ([3]; n = 1 per tracer) [min] | Compound | binding to PD tissues versus AD and control brain tissues (PD brain tissues) | further results
26 | 21 ± 8.7 nM | 19.5 ± 15.5 | penetrated the BBB well | rapid washout from all brain regions | 3 | COc1ccc(Nc2ccc3cc(OCC[18F])ccc3n2)cn1 [[^18F]7j] |  | Kd (PD brain tissues; Figure 5, single representative curve, read-out: Kd, PD tissue, representative assay): 3.6 nM; Kd, AD tissue [2]: no binding
 | 5 nM and 4.8 nM | 5 |  |  |  | COc1ccc(Nc2ccc3cc(OC/C=C/[125I])ccc3n2)cn1 [[^125I]8i] | selective for PD tissues versus AD or control tissues; also recorded: very potent for PD tissues but not for control and AD brain tissues | Bmax, high affinity binding site, PD tissues (PD brain tissues; two-site binding): 50 nM; Bmax, low affinity binding site, PD tissues (PD brain tissues; two-site binding): 12 µM; Kd (PD brain tissues; two-site binding, read-out: Kd, high affinity binding site, PD tissues): 0.61 nM
 |  |  | penetrated the BBB very well | slow |  | [11CH3]Oc1ccc(Nc2ccc3cc(OC/C=C/I)ccc3n2)cn1 [[^11C]8i] | potent selectivity for PD brain tissues over AD and control tissues | initial brain uptake, standardized uptake value (SUV) ([3]; 3 min post-injection, n = 1 per tracer): about 3 g/mL; brain uptake ratio from 3 min to 120 min ([3]; washout kinetics, n = 1): about 1.5; Kd [5]: 5 nM

More lines, now with the values behind:

Compound | Kd [1, 6] [nM] | Kd [1, 7] | Kd (PD brain tissues; [8]) [nM] | blood–brain barrier penetration [3] | brain washout kinetics [3] | time of peak brain uptake post-injection ([3]; n = 1 per tracer) [min] | binding to PD tissues versus AD and control brain tissues (PD brain tissues) | further results
C#CCCC1(CCOc2ccc3nc(Nc4ccc(OC)nc4)ccc3c2)N=N1 [TZ-CLX, 6-(2-(3-(But-3-yn-1-yl)-3H-diazirin-3-yl)ethoxy)-N-(6-methoxypyridin-3-yl)quinolin-2-amine] |  |  |  |  |  |  |  | binding site on α-synuclein fibrils by photo-crosslinking [4]: significant selectivity for the C-terminal binding sites of α-synuclein fibrils
COc1ccc(Nc2ccc3cc(O[11CH3])ccc3n2)cn1 [[^11C]7f] | 11 | 15.5 ± 4.8 nM |  | penetrated the BBB well | rapid washout from all brain regions | 3 |  | Kd [2]: 62.7 ± 68.8 nM
